Assay results published in PubChem BioAssay (NCI).
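Step 1: Grow cells in 96-well plates. Step 2: Expose to compound for 48 hours at 5 concentrations. Step 3: Interpolate endpoints linearly; if unreached, use highest concentration. GI50 marks 50% less growth. The concentration for full growth arrest is given as TGI.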

Tests used:
Assay in all cases: DTP human tumour cell line panel, 48 h
HOP-62 NSCLC = system: HOP-62 NSCLC
UACC-257 melanoma = system: UACC-257 melanoma
SK-MEL-5 melanoma = system: SK-MEL-5 melanoma
SR leukemia = system: SR leukemia
U251 CNS = system: U251 CNS
MOLT-4 leukemia = system: MOLT-4 leukemia
TK-10 renal = system: TK-10 renal
IGROV1 ovarian = system: IGROV1 ovarian
OVCAR-3 ovarian = system: OVCAR-3 ovarian
786-0 renal = system: 786-0 renal
RPMI-8226 leukemia = system: RPMI-8226 leukemia
SN12C renal = system: SN12C renal
SF-268 CNS = system: SF-268 CNS
K-562 leukemia = system: K-562 leukemia
M14 melanoma = system: M14 melanoma
SF-539 CNS = system: SF-539 CNS
A549 NSCLC = system: A549 NSCLC
HCC-2998 colon = system: HCC-2998 colon
SK-MEL-28 melanoma = system: SK-MEL-28 melanoma
ACHN renal = system: ACHN renal
CAKI-1 renal = system: CAKI-1 renal
MDA-MB-468 breast = system: MDA-MB-468 breast
SK-OV-3 ovarian = system: SK-OV-3 ovarian
MALME-3M melanoma = system: MALME-3M melanoma
LOX IMVI melanoma = system: LOX IMVI melanoma
SNB-75 CNS = system: SNB-75 CNS
SK-MEL-2 melanoma = system: SK-MEL-2 melanoma
OVCAR-5 ovarian = system: OVCAR-5 ovarian
OVCAR-8 ovarian = system: OVCAR-8 ovarian
OVCAR-4 ovarian = system: OVCAR-4 ovarian
HOP-92 NSCLC = system: HOP-92 NSCLC
NCI-H226 lung = system: NCI-H226 lung
NCI-H522 lung = system: NCI-H522 lung
DU-145 prostate = system: DU-145 prostate
SNB-19 CNS = system: SNB-19 CNS
SW-620 colon = system: SW-620 colon
COLO 205 colon = system: COLO 205 colon
MDA-MB-231 breast = system: MDA-MB-231 breast
HCT-15 colon = system: HCT-15 colon
UACC-62 melanoma = system: UACC-62 melanoma
HS 578T breast = system: HS 578T breast
EKVX NSCLC = system: EKVX NSCLC
MDA-MB-435 = system: MDA-MB-435
RXF 393 renal = system: RXF 393 renal
PC-3 prostate = system: PC-3 prostate
KM12 colon = system: KM12 colon
MCF7 breast = system: MCF7 breast
HCT-116 colon = system: HCT-116 colon
HT29 colon = system: HT29 colon
UO-31 renal = system: UO-31 renal
SF-295 CNS = system: SF-295 CNS
CCRF-CEM leukemia = system: CCRF-CEM leukemia
BT-549 breast = system: BT-549 breast
A498 renal = system: A498 renal
NCI/ADR-RES ovarian = system: NCI/ADR-RES ovarian
NCI-H460 lung = system: NCI-H460 lung
NCI-H23 lung = system: NCI-H23 lung
HL-60(TB) leukemia = system: HL-60(TB) leukemia

COc1ccc2[nH]c(O)c(N=Nc3nc(-c4ccc(Br)cc4)cs3)c2c1
GI50 (HOP-62 NSCLC): 6.51 µM
TGI (HOP-62 NSCLC): 36 µM
GI50 (UACC-257 melanoma): 8.64 µM
TGI (UACC-257 melanoma): > 100 µM
GI50 (SK-MEL-5 melanoma): 4.72 µM
TGI (SK-MEL-5 melanoma): 30.9 µM
GI50 (SR leukemia): 4.73 µM
TGI (SR leukemia): > 100 µM
GI50 (U251 CNS): 2.96 µM
TGI (U251 CNS): 9.25 µM
GI50 (MOLT-4 leukemia): 3.33 µM
TGI (MOLT-4 leukemia): > 100 µM
GI50 (TK-10 renal): 14.7 µM
TGI (TK-10 renal): 89.9 µM
GI50 (IGROV1 ovarian): 5.41 µM
TGI (IGROV1 ovarian): > 100 µM
GI50 (OVCAR-3 ovarian): 2.91 µM
TGI (OVCAR-3 ovarian): 10.4 µM
GI50 (786-0 renal): 1.65 µM
TGI (786-0 renal): 3.22 µM
GI50 (RPMI-8226 leukemia): 3.62 µM
TGI (RPMI-8226 leukemia): > 100 µM
GI50 (SN12C renal): 3.16 µM
TGI (SN12C renal): 11.1 µM
GI50 (SF-268 CNS): 6.49 µM
TGI (SF-268 CNS): 36.6 µM
GI50 (K-562 leukemia): 4.35 µM
TGI (K-562 leukemia): > 100 µM
GI50 (M14 melanoma): 2.81 µM
TGI (M14 melanoma): 10.3 µM
GI50 (SF-539 CNS): 1.92 µM
TGI (SF-539 CNS): 3.95 µM
GI50 (A549 NSCLC): 3.07 µM
TGI (A549 NSCLC): 12.9 µM
GI50 (HCC-2998 colon): 4.25 µM
TGI (HCC-2998 colon): > 100 µM
GI50 (SK-MEL-28 melanoma): 2.01 µM
TGI (SK-MEL-28 melanoma): 4.19 µM
GI50 (ACHN renal): 3.18 µM
TGI (ACHN renal): 10.1 µM
GI50 (CAKI-1 renal): 5.1 µM
TGI (CAKI-1 renal): 32.7 µM
GI50 (MDA-MB-468 breast): 2.17 µM
TGI (MDA-MB-468 breast): 5.81 µM
GI50 (SK-OV-3 ovarian): 6.16 µM
TGI (SK-OV-3 ovarian): 50.3 µM
GI50 (MALME-3M melanoma): 1.69 µM
TGI (MALME-3M melanoma): 3.2 µM
GI50 (LOX IMVI melanoma): 3.77 µM
TGI (LOX IMVI melanoma): 12.5 µM
GI50 (SNB-75 CNS): 3 µM
TGI (SNB-75 CNS): 21.3 µM
GI50 (SK-MEL-2 melanoma): 2.6 µM
TGI (SK-MEL-2 melanoma): 8.11 µM
GI50 (OVCAR-5 ovarian): 5.77 µM
TGI (OVCAR-5 ovarian): 33.8 µM
GI50 (OVCAR-8 ovarian): 3.07 µM
TGI (OVCAR-8 ovarian): 9.52 µM
GI50 (OVCAR-4 ovarian): 1.73 µM
TGI (OVCAR-4 ovarian): 3.23 µM
GI50 (HOP-92 NSCLC): 1.96 µM
TGI (HOP-92 NSCLC): 5.21 µM
GI50 (NCI-H226 lung): 4.44 µM
TGI (NCI-H226 lung): 19.5 µM
GI50 (NCI-H522 lung): 2.5 µM
TGI (NCI-H522 lung): 39 µM
GI50 (DU-145 prostate): 4.54 µM
TGI (DU-145 prostate): 32.6 µM
GI50 (SNB-19 CNS): 8.01 µM
TGI (SNB-19 CNS): 52.4 µM
GI50 (SW-620 colon): 3.06 µM
TGI (SW-620 colon): > 100 µM
GI50 (COLO 205 colon): 5.6 µM
TGI (COLO 205 colon): > 100 µM
GI50 (MDA-MB-231 breast): 5.35 µM
TGI (MDA-MB-231 breast): 20.7 µM
GI50 (HCT-15 colon): 4.43 µM
TGI (HCT-15 colon): 30.6 µM
GI50 (UACC-62 melanoma): 2.97 µM
TGI (UACC-62 melanoma): > 100 µM
GI50 (HS 578T breast): 7.34 µM
TGI (HS 578T breast): > 100 µM
GI50 (EKVX NSCLC): 3.63 µM
TGI (EKVX NSCLC): 27.9 µM
GI50 (MDA-MB-435): 6.64 µM
TGI (MDA-MB-435): > 100 µM
GI50 (RXF 393 renal): 2.29 µM
TGI (RXF 393 renal): 5.07 µM
GI50 (PC-3 prostate): 5.22 µM
TGI (PC-3 prostate): 60.1 µM
GI50 (KM12 colon): 6.23 µM
TGI (KM12 colon): > 100 µM
GI50 (MCF7 breast): 2.98 µM
TGI (MCF7 breast): 79.8 µM
GI50 (HCT-116 colon): 2.35 µM
TGI (HCT-116 colon): 5.72 µM
GI50 (HT29 colon): 7.18 µM
TGI (HT29 colon): > 100 µM
GI50 (UO-31 renal): 9.13 µM
TGI (UO-31 renal): 28.2 µM
GI50 (SF-295 CNS): 11.3 µM
TGI (SF-295 CNS): 39.3 µM
GI50 (CCRF-CEM leukemia): 6.56 µM
TGI (CCRF-CEM leukemia): > 100 µM
GI50 (BT-549 breast): 7.26 µM
TGI (BT-549 breast): 36.6 µM
GI50 (A498 renal): 2.38 µM
TGI (A498 renal): 6.5 µM
GI50 (NCI/ADR-RES ovarian): 2.1 µM
TGI (NCI/ADR-RES ovarian): 4.58 µM
GI50 (NCI-H460 lung): 2.48 µM
TGI (NCI-H460 lung): 6.14 µM
GI50 (NCI-H23 lung): 3.51 µM
TGI (NCI-H23 lung): 14.2 µM
GI50 (HL-60(TB) leukemia): 87.8 µM
TGI (HL-60(TB) leukemia): > 100 µM
